According to ChEMBL document CHEMBL1201862, “PubChem BioAssay data set” (2004):
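Cultured in 96-well plates, cells were exposed to test compound for 48 hours across five concentrations. GI50 is the concentration that inhibits growth by half.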 Activity calls are given as the source filed them. Rule as the data show it: active = GI50 up to about 1.1 µM and inactive = higher.

Assays:
Assay in all cases: DTP human tumour cell line panel, 48 h
[1] = test system: T47D
[2] = test system: 786-0
[3] = test system: K562
[4] = test system: Hs-578T
[5] = test system: CAKI-1
[6] = test system: DU-145
[7] = test system: SN12C
[8] = test system: OVCAR-3
[9] = test system: TK-10
[10] = test system: NCI-H460
[11] = test system: BT-549
[12] = test system: OVCAR-5
[13] = test system: U-251
[14] = test system: A549
[15] = test system: RXF 393
[16] = test system: IGROV-1
[17] = test system: CCRF-CEM
[18] = test system: SF-268
[19] = test system: NCI-H226

Structure (SMILES) | GI50 [1] | GI50 [2] | GI50 [3] | GI50 [4] | GI50 [5] | GI50 [6] | GI50 [7] | GI50 [8] | GI50 [9] | GI50 [10] | GI50 [11] | GI50 [12] | GI50 [13] | GI50 [14] | GI50 [15] | GI50 [16] | GI50 [17] | GI50 [18] | GI50 [19]
Cc1cc2[n-][n+]3ncc(-c4ccccc4)n3c2cc1[N+](=O)[O-] | > 100 µM (inactive) | > 100 µM (inactive) | > 100 µM (inactive) | > 100 µM (inactive) | > 100 µM (inactive) | > 100 µM (inactive) | > 10 µM (inactive) | > 100 µM (inactive) | > 100 µM (inactive) | > 100 µM (inactive) | > 100 µM (inactive) | > 100 µM (inactive) | > 100 µM (inactive) | > 100 µM (inactive) | > 100 µM (inactive) | > 100 µM (inactive) | > 100 µM (inactive) | – | –
C=C1C2CC[C@@](C)(O)C2[C@H]2OC(=O)C(=C)[C@@H]2C[C@H]1O (stereo partly drawn) | 17.8 µM (inactive) | 16.1 µM (inactive) | 28.6 µM (inactive) | 23.4 µM (inactive) | 12.1 µM (inactive) | 15.5 µM (inactive) | 18.5 µM (inactive) | 20.4 µM (inactive) | 14.9 µM (inactive) | – | 10.3 µM (inactive) | 29 µM (inactive) | 31.9 µM (inactive) | 29.3 µM (inactive) | 22.1 µM (inactive) | 28.4 µM (inactive) | 2.56 µM (inactive) | 49.2 µM (inactive) | 18 µM (inactive)
O=C(NCc1ccccc1Cl)c1c(O)c2ccccc2[nH]c1=O | – | 16.8 µM (inactive) | > 100 µM (inactive) | 25.9 µM (inactive) | 22.7 µM (inactive) | > 100 µM (inactive) | > 100 µM (inactive) | 32 µM (inactive) | 56.4 µM (inactive) | 18.7 µM (inactive) | 34.9 µM (inactive) | > 100 µM (inactive) | 18.7 µM (inactive) | 77.8 µM (inactive) | 21.2 µM (inactive) | 24.6 µM (inactive) | > 100 µM (inactive) | 72.1 µM (inactive) | 44.7 µM (inactive)
Cc1n[nH]c(=O)n1/N=C\CC/C=N\n1c(C)n[nH]c1=O | > 100 µM (inactive) | > 100 µM (inactive) | > 100 µM (inactive) | > 100 µM (inactive) | > 100 µM (inactive) | > 100 µM (inactive) | > 100 µM (inactive) | > 100 µM (inactive) | > 100 µM (inactive) | – | > 100 µM (inactive) | > 100 µM (inactive) | > 100 µM (inactive) | > 100 µM (inactive) | > 100 µM (inactive) | > 100 µM (inactive) | > 100 µM (inactive) | > 100 µM (inactive) | > 100 µM (inactive)
C[C@]1(CO)[C@H]2CC[C@@]34C=C[C@@](CO)(CC[C@H]3[C@]2(C)CC[C@H]1O)C4 | 12.9 µM (inactive) | 43.9 µM (inactive) | – | 55.7 µM (inactive) | 30.9 µM (inactive) | 42.2 µM (inactive) | > 100 µM (inactive) | > 100 µM (inactive) | > 100 µM (inactive) | – | 56.2 µM (inactive) | > 100 µM (inactive) | 63 µM (inactive) | > 100 µM (inactive) | 36.9 µM (inactive) | 25.4 µM (inactive) | > 100 µM (inactive) | 47.3 µM (inactive) | > 100 µM (inactive)
CC(=O)C(=[N+]=[N-])C(=O)OCCOC(=O)C(=[N+]=[N-])C(C)=O | > 1 µM (active) | > 1 µM (active) | > 1 µM (active) | > 1 µM (active) | – | > 1 µM (active) | > 1 µM (active) | > 1 µM (active) | > 1 µM (active) | > 1 µM (active) | > 1 µM (active) | > 1 µM (active) | > 1 µM (active) | > 1 µM (active) | > 1 µM (active) | > 1 µM (active) | > 1 µM (active) | > 1 µM (active) | > 1 µM (active)
O=C(c1c(F)c(F)c(F)c(F)c1F)n1c(=S)n(C(=O)c2c(F)c(F)c(F)c(F)c2F)c2ccccc21 | 82.4 µM (inactive) | > 100 µM (inactive) | 22.2 µM (inactive) | > 100 µM (inactive) | – | 80.5 µM (inactive) | > 100 µM (inactive) | – | > 100 µM (inactive) | > 100 µM (inactive) | > 100 µM (inactive) | > 100 µM (inactive) | > 100 µM (inactive) | – | – | > 100 µM (inactive) | 12.3 µM (inactive) | 39.9 µM (inactive) | –
CC(=O)OCC1OC(Nc2ccc3nc(C)n(-c4ccccc4)c(=O)c3c2)C(OC(C)=O)C(OC(C)=O)C1OC(C)=O (stereo not drawn) | > 50 µM (inactive) | > 50 µM (inactive) | 32.1 µM (inactive) | > 50 µM (inactive) | > 50 µM (inactive) | > 50 µM (inactive) | > 50 µM (inactive) | > 50 µM (inactive) | > 50 µM (inactive) | 15.5 µM (inactive) | > 50 µM (inactive) | > 50 µM (inactive) | > 50 µM (inactive) | – | > 50 µM (inactive) | > 50 µM (inactive) | – | > 50 µM (inactive) | > 50 µM (inactive)
N#Cc1c(N)c(-c2ccc(Cl)cc2)c(F)c2ccccc12 | > 100 µM (inactive) | > 100 µM (inactive) | > 100 µM (inactive) | 7.35 µM (inactive) | > 100 µM (inactive) | – | > 100 µM (inactive) | > 100 µM (inactive) | > 100 µM (inactive) | > 100 µM (inactive) | > 100 µM (inactive) | > 100 µM (inactive) | 96.4 µM (inactive) | > 100 µM (inactive) | 18.8 µM (inactive) | > 100 µM (inactive) | – | 9.82 µM (inactive) | > 100 µM (inactive)
COc1ccc2c(c1)N=C(N)n1c(nc3ccccc31)S2 | 15.2 µM (inactive) | 1.95 µM (inactive) | 10.9 µM (inactive) | 58.1 µM (inactive) | – | 74.8 µM (inactive) | 51.6 µM (inactive) | 22.2 µM (inactive) | > 100 µM (inactive) | 8.18 µM (inactive) | 27.1 µM (inactive) | 6.34 µM (inactive) | 6.27 µM (inactive) | 30 µM (inactive) | 19.5 µM (inactive) | 16.1 µM (inactive) | 2.99 µM (inactive) | 19.5 µM (inactive) | 45.8 µM (inactive)
NCC(O)CN.Oc1c(Cl)c(Cl)c(Cl)c(Cl)c1Cl | 22.5 µM (inactive) | 23.6 µM (inactive) | 27.9 µM (inactive) | 33.9 µM (inactive) | 31.1 µM (inactive) | 31.6 µM (inactive) | 20.3 µM (inactive) | 13.5 µM (inactive) | 24.5 µM (inactive) | 18.7 µM (inactive) | 24 µM (inactive) | 18 µM (inactive) | 18.8 µM (inactive) | 18.7 µM (inactive) | 27 µM (inactive) | 13.4 µM (inactive) | – | 29.2 µM (inactive) | 18 µM (inactive)
NCCSc1nc2ccccc2c(=O)n1-c1ccccc1 | 32.6 µM (inactive) | 51.1 µM (inactive) | 39.9 µM (inactive) | – | 90.6 µM (inactive) | – | > 100 µM (inactive) | > 100 µM (inactive) | 45.5 µM (inactive) | – | 27.2 µM (inactive) | > 100 µM (inactive) | 34.4 µM (inactive) | 43.7 µM (inactive) | – | 44.7 µM (inactive) | 45.7 µM (inactive) | – | > 100 µM (inactive)
O=c1cc(NCc2ccncc2)[nH]c(=O)[nH]1 | > 100 µM (inactive) | > 100 µM (inactive) | > 100 µM (inactive) | > 100 µM (inactive) | > 100 µM (inactive) | – | > 100 µM (inactive) | > 100 µM (inactive) | > 100 µM (inactive) | > 100 µM (inactive) | > 100 µM (inactive) | > 100 µM (inactive) | > 100 µM (inactive) | > 100 µM (inactive) | > 100 µM (inactive) | > 100 µM (inactive) | > 100 µM (inactive) | > 100 µM (inactive) | > 100 µM (inactive)
N#CCCOc1cccc(C2(N3CCCCC3)CCCCC2)c1 | > 100 µM (inactive) | > 100 µM (inactive) | > 100 µM (inactive) | > 100 µM (inactive) | > 100 µM (inactive) | > 100 µM (inactive) | > 100 µM (inactive) | > 100 µM (inactive) | > 100 µM (inactive) | – | > 100 µM (inactive) | > 100 µM (inactive) | > 100 µM (inactive) | > 100 µM (inactive) | – | > 100 µM (inactive) | > 100 µM (inactive) | > 100 µM (inactive) | > 100 µM (inactive)
BC(=O)NC(CC(C)C)C(=O)NC1c2ccsc2C(=O)C1O.CN(C)C (stereo not drawn) | > 100 µM (inactive) | > 100 µM (inactive) | > 100 µM (inactive) | > 100 µM (inactive) | – | > 100 µM (inactive) | > 100 µM (inactive) | – | > 100 µM (inactive) | > 100 µM (inactive) | > 100 µM (inactive) | > 100 µM (inactive) | > 100 µM (inactive) | > 100 µM (inactive) | > 100 µM (inactive) | > 100 µM (inactive) | > 100 µM (inactive) | > 100 µM (inactive) | > 100 µM (inactive)
CC1=C(c2ccc(C)cc2)NC(=S)C(C)C(c2ccc(C)cc2)=N1 (stereo not drawn) | 37.1 µM (inactive) | > 100 µM (inactive) | 35.8 µM (inactive) | – | > 100 µM (inactive) | > 100 µM (inactive) | > 100 µM (inactive) | – | > 100 µM (inactive) | > 100 µM (inactive) | 72.3 µM (inactive) | > 100 µM (inactive) | > 100 µM (inactive) | 81.5 µM (inactive) | 14.7 µM (inactive) | > 100 µM (inactive) | 27.2 µM (inactive) | > 100 µM (inactive) | > 100 µM (inactive)
